ChEMBL document CHEMBL4130375, “Design, synthesis and biological evaluation of 4-amidobenzimidazole acridine derivatives as dual PARP and Topo inhibitors for cancer therapy” (Eur J Med Chem, 2017)
Calls of active or inactive are those of the source. The rule behind the calls is not given here.

How the values were obtained:
[1] = target: DNA topoisomerase 2-alpha (Homo sapiens) (UniProt P11388); assay: Inhibition of human topoisomerase-2 at 100 uM using supercoiled pBR322 DNA as substrate after 10 to 15 mins by ethidium bromide staining based electrophoresis method
MCF7 [2] = assay: Downregulation of CDK4 protein expression in human MCF7 cells up to 10 uM after 24 hrs by Western blot method; assay type: functional, cell-based
MCF7 [3] = assay: Induction of apoptosis in human MCF7 cells assessed as necrotic cells at 5 uM after 48 hrs by Annexin V-FITC/propidium iodide staining based flow cytometry (reference value: 0%); assay type: functional
MCF7 [4] = assay: Downregulation of CyclinE protein expression in human MCF7 cells up to 10 uM after 24 hrs by Western blot method; assay type: functional, cell-based
Cytochrome P450 1A2 = target: T1, Cytochrome P450 1A2 (Homo sapiens, UniProt P05177); assay: Inhibition of CYP1A2 in human liver microsomes preincubated for 10 mins followed by NADPH/substrate addition measured after 20 mins by LC-MS/MS analysis
T1 sequence (P05177 whole entry): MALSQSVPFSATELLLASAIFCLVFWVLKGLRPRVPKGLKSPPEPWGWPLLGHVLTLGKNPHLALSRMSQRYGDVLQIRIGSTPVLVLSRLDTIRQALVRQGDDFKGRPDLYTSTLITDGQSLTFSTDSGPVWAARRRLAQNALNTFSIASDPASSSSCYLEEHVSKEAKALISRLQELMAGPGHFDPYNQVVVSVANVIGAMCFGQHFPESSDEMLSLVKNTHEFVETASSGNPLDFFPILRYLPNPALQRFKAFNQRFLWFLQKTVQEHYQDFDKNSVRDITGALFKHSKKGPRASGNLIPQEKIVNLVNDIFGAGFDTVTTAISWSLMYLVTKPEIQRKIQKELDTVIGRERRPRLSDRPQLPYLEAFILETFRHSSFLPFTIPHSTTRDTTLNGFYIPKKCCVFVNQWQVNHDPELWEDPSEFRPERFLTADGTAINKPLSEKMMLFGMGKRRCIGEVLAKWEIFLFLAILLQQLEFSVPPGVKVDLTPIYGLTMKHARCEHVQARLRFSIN

MCF7 [5] = assay: Induction of apoptosis in human MCF7 cells assessed as live cells at 10 uM after 48 hrs by Annexin V-FITC/propidium iodide staining based flow cytometry (reference value: 99.9%); assay type: functional
MCF7 [6] = assay: Upregulation of p21 protein expression in human MCF7 cells after 24 hrs by Western blot method; assay type: functional, cell-based
MCF7 [7] = assay: Downregulation of CyclinA protein expression in human MCF7 cells up to 10 uM after 24 hrs by Western blot method; assay type: functional, cell-based
MCF7 [8] = assay: Antitumor activity against human MCF7 cells xenografted in mouse assessed as tumor growth inhibition at 20 to 40 mg/kg/day, ip measured on day 30 post initial treatment; assay type: functional, organism-based
MCF7 [9] = assay: Cell cycle arrest in human MCF7 cells after 24 hrs by propidium iodide staining based flow cytometry; assay type: functional
MCF7 [10] = assay: Cell cycle arrest in human MCF7 cells assessed as accumulation at G2/M phase at 10 uM after 24 hrs by propidium iodide staining based flow cytometry (reference value: 22.61 +/- 1.55%); assay type: functional
HCC1937 [11] = assay: Potency index, ratio of m-AMSA IC50 to compound IC50 for human HCC1937 cells harboring BRCA1 mutant; assay type: functional
MCF7 [12] = assay: Upregulation of cleaved PARP protein expression in human MCF7 cells after 24 hrs by Western blot method; assay type: functional, cell-based
MCF7 [13] = assay: Upregulation of cleaved caspase-3 protein expression in human MCF7 cells after 24 hrs by Western blot method; assay type: functional, cell-based
MCF7 [14] = assay: Induction of apoptosis in human MCF7 cells assessed as late apoptotic cells at 1 uM after 48 hrs by Annexin V-FITC/propidium iodide staining based flow cytometry (reference value: 0%); assay type: functional
MCF7 [15] = assay: Induction of apoptosis in human MCF7 cells assessed as necrotic cells at 1 uM after 48 hrs by Annexin V-FITC/propidium iodide staining based flow cytometry (reference value: 0%); assay type: functional
MCF7 [16] = assay: Downregulation of CDK6 protein expression in human MCF7 cells up to 10 uM after 24 hrs by Western blot method; assay type: functional, cell-based
MCF7 [17] = assay: Cell cycle arrest in human MCF7 cells assessed as accumulation at G2/M phase at 1 uM after 24 hrs by propidium iodide staining based flow cytometry (reference value: 22.61 +/- 1.55%); assay type: functional
[18] = Intrinsic clearance in human liver microsomes at 1.11 uM preincubated for 5 mins followed by NADPH addition by LC-MS/MS analysis; assay type: ADME, microsome; details: read-out: CLH
MCF7 [19] = assay: Downregulation of full length PARP protein expression in human MCF7 cells up to 10 uM after 24 hrs by Western blot method; assay type: functional, cell-based
MCF7 [20] = assay: Cell cycle arrest in human MCF7 cells assessed as accumulation at S phase at 10 uM after 24 hrs by propidium iodide staining based flow cytometry (reference value: 59.72 +/- 2.98%); assay type: functional
HCT-116 [21] = assay: Potency index, ratio of m-AMSA IC50 to compound IC50 for human HCT116 cells expressing topoisomerase-1; assay type: functional
MCF7 [22] = assay: Induction of apoptosis in human MCF7 cells assessed as early apoptotic cells at 10 uM after 48 hrs by Annexin V-FITC/propidium iodide staining based flow cytometry (reference value: 0.108%); assay type: functional
MCF7 [23] = assay: Induction of apoptosis in human MCF7 cells assessed as live cells at 5 uM after 48 hrs by Annexin V-FITC/propidium iodide staining based flow cytometry (reference value: 99.9%); assay type: functional
MCF7 [24] = assay: Potency index, ratio of olaparib IC50 to compound IC50 for human MCF7 cells; assay type: functional
MCF7 [25] = assay: Induction of DNA double strand breaks in human MCF7 cells assessed as increase in 53BP1 level after 24 hrs by Western blot analysis; assay type: functional, cell-based
MCF7 [26] = assay: Cell cycle arrest in human MCF7 cells assessed as accumulation at G0/G1 phase at 1 uM after 24 hrs by propidium iodide staining based flow cytometry (reference value: 17.67 +/- 1.25%); assay type: functional
Cytochrome P450 3A4 = Cytochrome P450 3A4 (Homo sapiens, UniProt P08684); assay: Inhibition of CYP3A4 in human liver microsomes preincubated for 10 mins followed by NADPH/substrate addition measured after 20 mins by LC-MS/MS analysis
MCF7 [27] = assay: Cell cycle arrest in human MCF7 cells assessed as accumulation at S phase at 1 uM after 24 hrs by propidium iodide staining based flow cytometry (reference value: 59.72 +/- 2.98%); assay type: functional
MCF7 [28] = assay: Potency index, ratio of m-AMSA IC50 to compound IC50 for human MCF7 cells; assay type: functional
MCF7 [29] = assay: Induction of apoptosis in human MCF7 cells after 48 hrs by Annexin V-FITC/propidium iodide staining based flow cytometry; assay type: functional, cell-based
HCC1937 [30] = assay: Potency index, ratio of olaparib IC50 to compound IC50 for human HCC1937 cells harboring BRCA1 mutant; assay type: functional
[31] = Half life in mouse liver microsomes at 1.11 uM preincubated for 5 mins followed by NADPH addition by LC-MS/MS analysis; assay type: ADME, microsome
HCT-116 [32] = assay: Antiproliferative activity against human HCT116 cells expressing topoisomerase-1 after 72 hrs by MTT assay; assay type: functional, cell-based; details: HCT-116, 72 h

Chain of Cytochrome P450 3A4 (P08684 whole entry): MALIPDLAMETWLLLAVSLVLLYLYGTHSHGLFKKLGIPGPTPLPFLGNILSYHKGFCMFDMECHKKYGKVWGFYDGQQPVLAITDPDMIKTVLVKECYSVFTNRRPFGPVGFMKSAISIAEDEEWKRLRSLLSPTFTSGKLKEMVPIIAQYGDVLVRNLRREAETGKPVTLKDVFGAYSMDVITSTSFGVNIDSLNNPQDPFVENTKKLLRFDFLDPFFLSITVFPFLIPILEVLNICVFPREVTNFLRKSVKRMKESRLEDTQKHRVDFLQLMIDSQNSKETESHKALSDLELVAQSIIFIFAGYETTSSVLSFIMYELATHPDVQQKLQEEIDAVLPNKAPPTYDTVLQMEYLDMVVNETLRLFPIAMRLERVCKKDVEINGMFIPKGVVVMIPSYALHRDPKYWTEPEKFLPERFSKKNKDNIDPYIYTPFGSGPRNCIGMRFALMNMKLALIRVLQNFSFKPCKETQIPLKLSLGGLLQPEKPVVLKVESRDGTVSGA
Chain of DNA topoisomerase 2-alpha (Homo sapiens) (P11388 whole entry): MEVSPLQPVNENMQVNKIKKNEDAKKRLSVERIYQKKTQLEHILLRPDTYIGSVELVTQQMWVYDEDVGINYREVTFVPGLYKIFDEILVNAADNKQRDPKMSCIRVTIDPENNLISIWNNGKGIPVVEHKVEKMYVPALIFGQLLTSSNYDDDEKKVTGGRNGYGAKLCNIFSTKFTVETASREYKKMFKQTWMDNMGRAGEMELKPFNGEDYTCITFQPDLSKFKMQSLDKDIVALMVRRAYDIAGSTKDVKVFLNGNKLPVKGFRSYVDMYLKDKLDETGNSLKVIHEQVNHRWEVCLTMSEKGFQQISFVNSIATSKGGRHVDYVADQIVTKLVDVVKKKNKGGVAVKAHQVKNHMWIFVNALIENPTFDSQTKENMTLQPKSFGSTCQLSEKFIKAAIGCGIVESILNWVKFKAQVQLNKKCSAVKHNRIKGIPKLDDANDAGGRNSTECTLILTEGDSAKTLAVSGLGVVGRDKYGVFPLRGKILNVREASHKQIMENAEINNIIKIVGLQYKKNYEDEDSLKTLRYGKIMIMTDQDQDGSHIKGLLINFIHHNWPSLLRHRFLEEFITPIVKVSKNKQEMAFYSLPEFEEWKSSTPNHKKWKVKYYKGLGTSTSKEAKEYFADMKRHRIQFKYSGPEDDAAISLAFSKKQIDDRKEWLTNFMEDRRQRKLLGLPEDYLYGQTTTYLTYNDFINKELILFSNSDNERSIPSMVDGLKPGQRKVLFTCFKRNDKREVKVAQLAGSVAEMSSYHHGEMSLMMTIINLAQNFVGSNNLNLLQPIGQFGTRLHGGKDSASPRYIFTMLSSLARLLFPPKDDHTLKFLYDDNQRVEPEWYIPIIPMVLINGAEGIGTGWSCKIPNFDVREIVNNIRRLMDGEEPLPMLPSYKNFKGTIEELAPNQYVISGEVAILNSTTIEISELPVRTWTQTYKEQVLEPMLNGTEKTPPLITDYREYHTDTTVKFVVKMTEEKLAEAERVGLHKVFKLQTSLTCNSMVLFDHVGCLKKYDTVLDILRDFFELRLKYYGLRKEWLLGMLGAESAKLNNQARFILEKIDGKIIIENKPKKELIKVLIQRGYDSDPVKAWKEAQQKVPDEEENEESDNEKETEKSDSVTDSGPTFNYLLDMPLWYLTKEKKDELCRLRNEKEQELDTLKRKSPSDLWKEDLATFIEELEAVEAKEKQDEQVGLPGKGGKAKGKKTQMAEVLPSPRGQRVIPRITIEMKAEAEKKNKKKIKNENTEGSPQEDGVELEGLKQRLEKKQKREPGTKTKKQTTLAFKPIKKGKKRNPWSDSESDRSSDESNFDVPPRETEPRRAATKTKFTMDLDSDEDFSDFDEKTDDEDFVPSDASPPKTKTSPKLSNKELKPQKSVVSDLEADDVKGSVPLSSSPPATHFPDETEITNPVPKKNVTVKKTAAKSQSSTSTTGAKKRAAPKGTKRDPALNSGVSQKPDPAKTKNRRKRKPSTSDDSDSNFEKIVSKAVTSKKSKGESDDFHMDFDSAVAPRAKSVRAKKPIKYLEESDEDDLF

Cc1cccc2c(Nc3cccc(-c4nc5c(C(N)=O)cccc5[nH]4)c3)c3ccccc3nc12
inhibition [1]: Active
Activity (MCF7 [2]): Active
Activity (MCF7 [3]): 0.641%
Activity (MCF7 [4]): Active
IC50 (Cytochrome P450 1A2): > 10 µM
Activity (MCF7 [5]): 8.18%
Activity (MCF7 [6]): Dose-dependent effect
Activity (MCF7 [7]): Active
TGI (MCF7 [8]): Active
Activity (MCF7 [9]): Dose-dependent effect
Activity (MCF7 [10]): 10.83%
Ratio IC50 (HCC1937 [11]): 9.5
Activity (MCF7 [12]): Dose-dependent effect
Activity (MCF7 [13]): Dose-dependent effect
Activity (MCF7 [14]): 22.2%
Activity (MCF7 [15]): 0.531%
Activity (MCF7 [16]): Active
Activity (MCF7 [17]): 21.76%
microsomal CLint at 1.11 µM [18]: 35.6 µL/min/mg
Activity (MCF7 [19]): Active
Activity (MCF7 [20]): 30.87%
Ratio IC50 (HCT-116 [21]): 2.7
Activity (MCF7 [22]): 9.58%
Activity (MCF7 [23]): 39.1%
Ratio IC50 (MCF7 [24]): 17
Activity (MCF7 [25]): Dose-dependent effect
Activity (MCF7 [26]): 19.96%
IC50 (Cytochrome P450 3A4): 6.8 µM
Activity (MCF7 [27]): 58.27%
Ratio IC50 (MCF7 [28]): 4
Activity (MCF7 [29]): Dose-dependent effect
Ratio IC50 (HCC1937 [30]): 6
half-life at 1.11 µM [31]: 1.44 h
IC50 (HCT-116 [32]): 1.43 µM
